US20210196789A1, “HEPARIN-BINDING DOMAIN OF IGFBP-2 IN THE TREATMENT OF METABOLIC DISORDERS” (AMOLYT PHARMA, priority 2018, published 2021)
Entries after “also recorded” stand apart in the source; their conditions may differ. No end group written: not given here. *: point of attachment. Stearoyl = CCCCCCCCCCCCCCCCCC(=O)*

Columns and labels:
[1] = tested on: C2C12 mouse skeletal muscle myotubes; assay: 3H-2-deoxyglucose uptake by fully differentiated C2C12 myotubes; type: cell-based
Method: The studies were performed using cultured, fully differentiated C2C12 mouse skeletal muscle myotubes. The cells were prepared by growing C2C12 cells to confluent density in DMEM with 25 mM glucose and 10% fetal bovine serum in 24 well plates. At this time, the medium was changed to differentiation medium (DMEM with 25 mM glucose and 2% horse serum) for 6 days with medium changed every third day. The various treatments were diluted in serum-free medium and, after washing the cells with serum-free medium, were added to the cells and incubated for 2 hours or alternative times, depending on the treatment. At the end of incubation period, the media was removed and 1.0 ml of glucose-free Krebs ringer bicarbonate buffer (pH 7.4), containing the same treatments, was added and incubation continued for 10 minutes. At the end of the 10 min incubation period, ^3H-2-deoxyglucose ([…]) (specific activity=8 Ci/mmole) was added directly to all wells, and the incubation continued for an additional 10 min. The wells were then rinsed three times with ice cold phosphate buffered saline, the cells were extracted with 0.5 N NaOH, and the ^3H-2-deoxyglucose content of the cell lysate quantitated by scintillation counting.

AMPK = AMPK phosphorylation (pT172 immunoblot) in C2C12 myotubes; type: cell-based, mouse
Method: (§1) For signaling studies the cells were prepared the same way except 6-well plates were used. After 6 days incubation in differentiating medium, the cells were washed with serum-free medium. The various treatments were then added in serum free medium containing 0.1% BSA. HBD1 peptides were added and incubated for 8 hours. When utilizing IGF-I, incubation was for 15 minutes after IGF-1 addition. Following incubation the cells were lysed in RIPA buffer and sonicated. The cell lysate was centrifuged and the supernatant analyzed for either Akt or AMPK by SDS PAGE using a 10% gel followed by immunoblotting with the appropriate antibody.
To examine further the intracellular transduction pathways utilized by the HBD1 peptides, following treatment with HBD1 peptide SEQ ID NO: 73 (C18:0-HLGLEEPKK), cell lysate proteins, were separated by SDS PAGE and immunoblotted with anti-pAMPK T172.

3T3-LI adipocytes = assay: [3H]-2-deoxyglucose uptake by fully differentiated 3T3-LI adipocytes; type: cell-based, mouse; conditions: 3 μg/ml for 24 hours
Method: 3T3-LI cells are a mouse fibroblast cell line which when cultured under specific conditions, differentiate into adipocytes.
Differentiation of 3T3-LI cells into adipocytes was achieved using the following protocol. 3T3-L1 cells were seeded in 24-well plates and cultured in 3T3-L1 maintenance medium (DMEM containing 10% fetal bovine serum, 4 mM L-glutamine 1 mM, sodium pyruvate) until the cells were 100% confluent. The cells were then fed with 3T3-L1 maintenance medium and cultured for a further 48 h. To initiate differentiation into adipocytes, the medium was changed to Differentiation medium 1 (DMEM containing 10% fetal bovine serum, 4 mM L-glutamine, 1 mM sodium pyruvate, 0.5 mM IBMX, […]), and cultured for a further 2 days. The medium was then changed to Differentiation medium 2 (DMEM containing 10% fetal bovine serum, 4 mM L-glutamine, 1 mM sodium pyruvate, 1 mg/ml insulin), and cultured for a further 2 days. The medium was then changed to Adipocyte Maintenance medium (DMEM containing 10% fetal bovine serum, 4 mM L-glutamine, 1 mM sodium pyruvate), and cultured for a further 7 days. During this time, the medium was changed every other day. The now fully differentiated adipocytes were utilized for glucose uptake experiments (day 11 from initiation of differentiation). Stock solutions of the HBD1 peptides to be tested were prepared by dilution with 0.9% NaCl solution under sterile conditions in a laminar flow cabinet to a concentration of 1 mg/ml, based on net peptide content. The solutions were homogenized by gentle inversion. Test items were prepared from the stock solutions, and remaining stock solution was aliquoted and stored at −20° C. and used without repeated freeze-thaw cycles.
Glucose uptake experiments were carried our using the following protocol. Prior to beginning the experiment, 100 ml of Krebs Ringer bicarbonate buffer (KRBB)(25 mM Hepes pH 7.4, 118 mM NaCl, 5 mM NaHCO3, 4.7 mM KCl, 1.2 mM KH2PO4, 1.2 mM MgSO4, 2.5 mM CaCl2, 0.2% BSA—Filtered using a 0.2 μm filter) and 100 ml of Incubation medium (DMEM containing 4 mM L-glutamine, 1 mM sodium pyruvate, 1% penicillin streptomycin, 0.2% BSA—Filtered using a 0.2 μm filter) were pre-warmed to 37° C., and 500 ml of KRBB was chilled on ice. Stock solutions of test compounds were diluted to 3 μg/ml final concentrations in pre-warmed Incubation medium and in pre-warmed KRBB. Insulin (positive control), previously diluted 1:1000 in sterile 0.9% NaCl, was further diluted in 10 ml of both medium and buffer to a final concentration of 1 nM. All traces of the medium were carefully removed from the cells using a fine tip. 1 ml of incubation medium containing study compounds or vehicle was added to the appropriate wells. No insulin was added at this time. […]

[2] = tested on: glucose telemetered ob/ob mice; assay: Basal blood glucose and IPGTT in glucose-telemetered ob/ob mice, 28 days of twice daily treatment; type: in vivo, mouse; conditions: for glucose intolerance: glucose telemetered ob/ob mice, 1 and 3 mg/kg s.c. twice daily, 27-28 days, vs vehicle
Method: To further assess the effects of HBD1 peptides on glucose and insulin metabolisms, basal blood glucose and glucose response to an intraperitoneal glucose tolerance test (IPGTT) were assessed in glucose-telemetered obese ob/ob mice after twice daily administration of HBD peptides for 28 consecutive days. Implantation of glucose telemetry device (HD-XG, Data Science International) was carried out according to known protocols.
A dose of HBD peptide fragment of SEQ ID NO: 73 (C18:0-HLGLEEPKK) was administered twice daily at 8-hour±1 hour interval between the two daily administrations. 24 V-Lepob/J (Ob/Ob) male mice (The Jackson Laboratory, Farmington, Conn. USA) were administered subcutaneously with vehicle (NaCl 0.9%) (Control group) or with the peptide at 1 and 3 mg/kg (Test groups) (n=5-8 animals for each group) twice daily for 28 days. The first day of dosing was designated as Day 1. Bolus injection was carried out using a sterile syringe and the needle was introduced subcutaneously, 2 to 4 injection sites were used in rotation. The hair of the animals on the injection area was clipped prior to the first injection and then as necessary during the treatment period. The volume administered was 5 mL/kg/administration. Individual dose volumes were calculated using the latest body weight. On day 27, 16-hour mean blood glucose levels were assessed in normal fed conditions. On day 28, fasted (4 hours) mice were injected intraperitoneally with glucose at 1 g/kg. Plasma blood glucose profile (expressed as mg/dL) was recorded every minute up to 3-hour post glucose injection.
Intraperitoneal glucose tolerance test (IPGTT)—On the morning of the IGPTT day (day 28), 2-hour fasted animals were treated with vehicle or with the HBD fragment. Glucose solution was administered 2 hours±15 minutes post-dosing (vehicle or a peptide as set forth in SEQ ID NO: 73 (C18:0-HLGLEEPKK). Blood glucose was monitored from 10 minutes before (fasting condition) to 3-hour post-glucose challenge. Food was re-introduced 4 hours post-glucose challenge. The second treatment of the day (the HBD fragment or vehicle) was performed 2 hours after food re-introduction.

Akt = Akt phosphorylation (pS473 immunoblot) in C2C12 myotubes; type: cell-based, mouse; conditions: 8 hours incubation (FIG. 6)
Method: as §1
To examine the intracellular transduction pathways utilized by the HBD1 peptides, following treatment with HBD1 peptide SEQ ID NO: 73 (C18:0-HLGLEEPKK), cell lysate proteins were separated by SDS PAGE and immunoblotted with anti-Akt pS473 antibodies.

[3] = tested on: B6.V-Lepob/J mice (ob/ob); assay: Intraperitoneal glucose tolerance test in ob/ob mice after 15 days of twice daily treatment; type: in vivo, mouse; conditions: 3 mg/kg s.c. twice daily for 15 days, 45 min after 1 g/kg i.p. glucose, vs vehicle
Method: After being acclimatized 7 days to the laboratory conditions, nine-week-old male B6.V-Lepob/J. mice (Charles River) were subcutaneously administered with vehicle (NaCl 0.9%) or with a peptide as set forth in SEQ ID NO: 73 (C18:0-HLGLEEPKK) at 3 mg/kg (n=5 animals for each group) twice daily for 15 days. On day 15, fasted (overnight) mice were injected intraperitoneally with glucose at 1 g/kg. Plasma blood glucose (expressed as mmol/L) was recorded at 45 minutes post glucose injection.

mice = mice (Xi, 2013); cited from earlier work
[4] = listed as acylated HBD1 (3-11) fragment

c1cc(-c2cnn3cc(-c4ccc(OCCN5CCCCC5)cc4)cnc23)ccn1 [Compound C, reference compound]
effect on SEQ ID NO: 73-stimulated glucose uptake ([1]; C2C12 myotubes, SEQ ID NO: 73 alone or together with insulin (FIG. 8)): completely abolished; also recorded: prevented | effect on SEQ ID NO: 73-induced AMPK phosphorylation (AMPK; C2C12 myotubes treated with SEQ ID NO: 73 (FIG. 7)): completely abolished; also recorded: prevented

C18:0-HLGLEEPKK (Stearoyl-HLGLEEPKK) [SEQ ID NO: 73]
glucose uptake by 3T3-LI adipocytes (3T3-LI adipocytes): stimulated increased glucose uptake | glucose uptake by C2C12 myotubes with insulin, separate experiment ([1]; 1.5 μM together with insulin (FIG. 8)): act additively with insulin; also recorded: in an additive manner with insulin | glucose uptake by C2C12 myotubes, separate experiment ([1]; 1.5 μM, alone (FIG. 8)): increased glucose uptake | glucose uptake by C2C12 myotubes ([1]; 0.8, 1.5, 2.3 μM, 1.5 μM for 2, 4, 16 hours, vs vehicle-treated controls (FIGS. 5A-5B)): stimulated increased glucose uptake as compared with vehicle-treated controls in both a dose- and time-dependent manner; also recorded: dose-dependent (FIG. 5A) and time-dependent (FIG. 5B) increases in glucose uptake | glucose uptake by C2C12 myotubes in combination with insulin ([1]; in combination with insulin (FIG. 5C)): additive increase in glucose uptake | phosphorylated AMPK (AMPK; C2C12 myotubes, 8 hours incubation (FIG. 7)): dose-dependent increase in phosphorylated AMPK; also recorded: dose-dependent phosphorylation (activation) of the AMPK pathway | effect on fasting glucose and glucose excursion at the high dose ([2]; 3 mg/kg, after 4 weeks): marked effect | glucose excursion following IPGTT ([2]; after 4 weeks of administration, 3-hour profile after 1 g/kg i.p. glucose): decreased | fasting glucose levels ([2]; after 4 weeks of administration, 10 min prior to IPGTT): decreased fasting glucose levels | 16-hour average blood glucose levels ([2]; day 27, normal fed conditions): markedly decrease 16-hour average blood glucose levels | glucose intolerance [2]: improved glucose intolerance in a dose-dependent manner | glucose intolerance [2, 4]: improves glucose intolerance | phosphorylated Akt (Akt): dose-related increase in phosphorylated Akt; also recorded: dose-dependent phosphorylation (activation) of the Akt pathway | plasma glucose levels in response to the IP glucose tolerance test [3]: reduced the plasma glucose levels | plasma glucose levels in response to the IP glucose tolerance test [3, 4]: improves glucose intolerance

HHLGLEEPKK [SEQ ID NO: 16]
glucose uptake by 3T3-LI adipocytes (3T3-LI adipocytes): stimulated increased glucose uptake

HLGLEEPKK [SEQ ID NO: 10]
glucose uptake by 3T3-LI adipocytes (3T3-LI adipocytes): stimulated increased glucose uptake

KHHLGLEEPKKLR [SEQ ID NO: 1]
glucose uptake by 3T3-LI adipocytes (3T3-LI adipocytes): stimulated increased glucose uptake | body weight and fat accumulation (mice): decrease body weight and fat accumulation | glucose tolerance (mice): no effect on glucose tolerance
